Patent US6867206B1, “6-carboxyphenyldihydropyridazinone derivatives and use thereof” (Bayer Aktiengesellschaft, priority 1999, dated 2005)

Compared with `CCCCNC(=O)c1ccc(C2=NNC(=O)CC2)cc1` [Example 4], `CCNC(=O)c1ccc(C2=NNC(=O)CC2)cc1` [Example 15] is higher in melting point: 217 to 218 °C for the first, 228 to 230 °C for the second.

`O=C1CCC(c2ccc(C(=O)NCc3ccco3)cc2)=NN1` [Example 5] and `O=C1CCC(c2ccc(C(=O)NCc3ccccc3)cc2)=NN1` [Example 7] cannot be ordered by melting point: 208 to 210 °C for the first, 208 to 209 °C for the second.

Compared with `COC(=O)c1ccc(C2=NNC(=O)CC2)cc1` [Example 6], `CCOC(=O)c1ccc(C2=NNC(=O)CC2)cc1` [Example 12] is lower in melting point: 203 to 205 °C for the first, 157 to 159 °C for the second.

First: CC(C)OC(=O)c1ccc(C2=NNC(=O)CC2)cc1 [Example 9]
Second: CCC(C)OC(=O)c1ccc(C2=NNC(=O)CC2)cc1 (stereo not shown) [Example 33]
The melting point of the first is higher: 155 to 156 °C for the first, 120 to 122 °C for the second.

First: O=C1CCC(c2ccc(C(=O)NCCc3ccccc3)cc2)=NN1 [Example 10]
Second: O=C1CCC(c2ccc(C(=O)NCCc3ccccc3F)cc2)=NN1 [Example 43]
The melting point of the first is higher: 223 to 226 °C for the first, 189 to 190 °C for the second.

`O=C1CCC(c2ccc(C(=O)NC3CC3)cc2)=NN1` [Example 11] and `O=C1CCC(c2ccc(C(=O)NC3CCCCC3)cc2)=NN1` [Example 27] cannot be ordered by melting point: 248 to 250 °C for the first, 249 to 250 °C for the second.

Compared with `CNC(=O)c1ccc(C2=NNC(=O)CC2)cc1` [Example 14], `CCCOC(=O)c1ccc(C2=NNC(=O)CC2)cc1` [Example 31] is higher in melting point: 233 to 234 °C for the first, 283 to 284 °C for the second.

Compared with `O=C1CCC(c2ccc(C(=O)NCc3cccc4ccccc34)cc2)=NN1` [Example 16], `O=C1CCC(c2ccc(C(=O)NCc3ccccc3F)cc2)=NN1` [Example 49] is lower in melting point: 258 to 260 °C for the first, 186 to 187 °C for the second.

First: O=C1CCC(c2ccc(C(=O)NCc3ccccn3)cc2)=NN1 [Example 17]
Second: O=C1CCC(c2ccc(C(=O)NCc3cccnc3)cc2)=NN1 [Example 20]
The melting point of the first is higher: 228 to 230 °C for the first, 220 to 223 °C for the second.

First: O=C1CCC(c2ccc(C(=O)Nc3ccccc3Cl)cc2)=NN1 [Example 18]
Second: CC(NC(=O)c1ccc(C2=NNC(=O)CC2)cc1)c1ccccc1 (stereo not shown) [Example 23]
The melting point of the first is lower: 209 to 210 °C for the first, 242 to 243 °C for the second.

First: O=C1CCC(c2ccc(C(=O)N3CCCCC3)cc2)=NN1 [Example 19]
Second: O=C1CCC(c2ccc(C(=O)N3CCOCC3)cc2)=NN1 [Example 29]
The melting point of the first is lower: 182 to 184 °C for the first, 202 to 203 °C for the second.

First: O=C1CCC(c2ccc(C(=O)N3CCCc4ccccc43)cc2)=NN1 [Example 25]
Second: CN(C(=O)c1ccc(C2=NNC(=O)CC2)cc1)c1ccccc1 [Example 42]
The melting point of the first is higher: 215 to 216 °C for the first, 208 to 209 °C for the second.

Compared with `O=C1CCC(c2ccc(C(=O)Nc3cccc(C(F)(F)F)c3)cc2)=NN1` [Example 28], `O=C1CCC(c2ccc(C(=O)Nc3c(F)cccc3F)cc2)=NN1` [Example 45] is higher in melting point: 229 to 230 °C for the first, 278 to 279 °C for the second.

First: O=C1CCC(c2ccc(C(=O)NCc3ccc(Cl)c(Cl)c3)cc2)=NN1 [Example 30]
Second: O=C1CCC(c2ccc(C(=O)NCCc3cccs3)cc2)=NN1 [Example 44]
The melting point of the first is lower: 208 to 209 °C for the first, 215 to 216 °C for the second.

Compared with `CC(C)COC(=O)c1ccc(C2=NNC(=O)CC2)cc1` [Example 32], `C=CCOC(=O)c1ccc(C2=NNC(=O)CC2)cc1` [Example 36] is lower in melting point: 259 to 260 °C for the first, 131 to 133 °C for the second.

Compared with `O=C1CCC(c2ccc(C(=O)OCC3CC3)cc2)=NN1` [Example 34], `O=C1CCC(c2ccc(C(=O)OCC3CCC3)cc2)=NN1` [Example 40] is lower in melting point: 158 to 159 °C for the first, 155 to 156 °C for the second.

First: O=C1CCC(c2ccc(C(=O)OC3CCCC3)cc2)=NN1 [Example 35]
Second: CC(OC(=O)c1ccc(C2=NNC(=O)CC2)cc1)C1CC1 (stereo not shown) [Example 38]
The melting point of the first is higher: 167 to 169 °C for the first, 104 to 105 °C for the second.

First: CN(CCOC(=O)c1ccc(C2=NNC(=O)CC2)cc1)Cc1ccccc1 [Example 37]
Second: O=C1CCC(c2ccc(C(=O)OCCc3ccccc3)cc2)=NN1 [Example 39]
The melting point of the first is lower: 90 to 91 °C for the first, 146 to 148 °C for the second.

First: O=C1CCC(c2ccc(C(=O)OCc3ccccc3)cc2)=NN1 [Example 41]
Second: CC1CC(=O)NN=C1c1ccc(C(=O)Nc2cccc3ccccc23)cc1 (stereo not shown) [Example 54]
The melting point of the first is lower: 156 to 157 °C for the first, 266 to 267 °C for the second.

First: CC1CC(=O)NN=C1c1ccc(C(=O)Nc2cccnc2)cc1 (stereo not shown) [Example 53]
Second: CC1CC(=O)NN=C1c1ccc(C(=O)Nc2ccc3ccccc3c2)cc1 (stereo not shown) [Example 55]
The melting point of the first is lower: 267 to 268 °C for the first, 271 to 272 °C for the second.

First: CC1CC(=O)NN=C1c1ccc(C(=O)NC2CC2)cc1 (stereo not shown) [Example 57]
Second: CC(C)CNC(=O)c1ccc(C2=NNC(=O)CC2C)cc1 (stereo not shown) [Example 62]
The melting point of the first is higher: 216 to 217 °C for the first, 166 to 167 °C for the second.

First: CC(C)CCNC(=O)c1ccc(C2=NNC(=O)CC2C)cc1 (stereo not shown) [Example 58]
Second: COc1ccc(CCNC(=O)c2ccc(C3=NNC(=O)CC3C)cc2)cc1 (stereo not shown) [Example 60]
The melting point of the first is lower: 152 to 153 °C for the first, 245 to 246 °C for the second.

Compared with `CC1CC(=O)NN=C1c1ccc(C(=O)NCC(c2ccccc2)c2ccccc2)cc1` (stereo not shown) [Example 59], `COc1cccc(CCNC(=O)c2ccc(C3=NNC(=O)CC3C)cc2)c1` (stereo not shown) [Example 61] is lower in melting point: 186 to 187 °C for the first, 164 to 165 °C for the second.

Compound `COc1ccc(CCNC(=O)c2ccc(C3=NNC(=O)CC3C)cc2)cc1OC` (stereo not shown) [Example 63] has a melting point of 146 to 147 °C.

Work on `O=C1CCC(c2ccc(C(=O)Nc3c(Cl)cccc3Cl)cc2)=NN1` [Example 8] yielded a melting point greater than 250 °C.
With `O=C1CCC(c2ccc(C(=O)Nc3ccccc3)cc2)=NN1` [Example 13] the melting point was greater than 250 °C.
In the case of `Cc1ccc(NC(=O)c2ccc(C3=NNC(=O)CC3)cc2)cc1` [Example 21], the melting point is reported as greater than 250 °C.
`O=C1CCC(c2ccc(C(=O)Nc3cccc(Cl)c3)cc2)=NN1` [Example 22] showed a melting point greater than 250 °C.
`COC(=O)c1ccc(NC(=O)c2ccc(C3=NNC(=O)CC3)cc2)o1` [Example 24] gave a melting point greater than 260 °C.
`NC(=O)c1ccsc1NC(=O)c1ccc(C2=NNC(=O)CC2)cc1` [Example 47] gave a melting point greater than 250 °C.
`NC(=O)c1ccccc1NC(=O)c1ccc(C2=NNC(=O)CC2)cc1` [Example 51] showed a melting point greater than 250 °C.
`CC1CC(=O)NN=C1c1ccc(C(=O)N2CCCc3ccccc32)cc1` (stereo not shown) [Example 56] showed a melting point greater than 260 °C.
